The values that follow are results of earlier work, collected in US20110135768A1, “DIHYDRO-ISOALPHA ACID AND ACACIA NILOTICA EXTRACT BASED COMPOSITIONS AND METHODS FOR WEIGHT MANAGEMENT” (Metaproteomics, LLC, priority 2009, published 2011).

Ends that are not written are not given here.

For this series the following is noted: rats, intra-cerebroventricular administration.

Consider “GLP-1: glucagon-like peptide-1, a 30 amino acid peptide derived from proglucagon gene (HAEGTFTSDVSSYLEGQAAKEFIAWLVKGR; ends and bridges not checked; UniProt P01275 98-127, looked up)”, for which the body weight result is “reduce” and the eating entry was “inhibit”.
